Here are results for 25 molecules from article PMC3261798, “Design, Synthesis, and Biological Evaluation of PKD Inhibitors” (Pharmaceutics, 2011).

Data set [1] deals with T1, PKD1 (Homo sapiens, UniProt Q15139).
T1 sequence (Q15139 1-912): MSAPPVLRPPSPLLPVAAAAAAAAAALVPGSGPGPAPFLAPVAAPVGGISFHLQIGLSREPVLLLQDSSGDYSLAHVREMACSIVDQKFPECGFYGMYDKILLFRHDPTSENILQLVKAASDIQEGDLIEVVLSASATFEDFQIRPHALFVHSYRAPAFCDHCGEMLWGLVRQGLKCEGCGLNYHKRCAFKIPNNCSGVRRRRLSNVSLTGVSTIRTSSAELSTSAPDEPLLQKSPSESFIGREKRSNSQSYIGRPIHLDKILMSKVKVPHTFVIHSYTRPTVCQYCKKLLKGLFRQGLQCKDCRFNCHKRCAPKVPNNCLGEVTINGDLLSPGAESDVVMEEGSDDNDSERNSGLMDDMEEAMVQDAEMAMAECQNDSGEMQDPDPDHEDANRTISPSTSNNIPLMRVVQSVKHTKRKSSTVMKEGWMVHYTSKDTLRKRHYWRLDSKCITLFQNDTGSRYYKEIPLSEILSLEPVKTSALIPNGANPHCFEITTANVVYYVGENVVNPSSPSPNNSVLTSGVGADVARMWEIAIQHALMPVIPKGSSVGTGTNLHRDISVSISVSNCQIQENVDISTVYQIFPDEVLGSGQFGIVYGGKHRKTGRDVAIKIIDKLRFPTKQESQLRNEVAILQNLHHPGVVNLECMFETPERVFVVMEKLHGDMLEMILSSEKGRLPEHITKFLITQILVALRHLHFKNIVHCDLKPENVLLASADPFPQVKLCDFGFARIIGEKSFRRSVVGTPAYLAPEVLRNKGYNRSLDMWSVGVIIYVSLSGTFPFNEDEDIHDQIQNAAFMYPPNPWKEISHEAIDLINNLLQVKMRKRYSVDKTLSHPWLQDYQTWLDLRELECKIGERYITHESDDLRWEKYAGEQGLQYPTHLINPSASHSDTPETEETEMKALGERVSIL
Briefly: IMAP-based PKD Fluorescence Polarization (FP) assay, automated HTS format. The class given is biochemical. The note with it: mean ± SEM, n = number of independent experiments. The procedure:
An automated, HTS formatted IMAP-based PKD Fluorescence Polarization (FP) assay was used to assess the specificity of the PKD analogs as previously described. […] Kinase reactions were incubated for 90 min at room temperature and stopped by the addition of IMAP binding reagent. Assay plates were then incubated for 2 h and IMAP-based FP data were captured on a Molecular Devices Spectra-Max M5 (Sunnyvale, CA, USA).

The target in data set [2] is T1, PKD1. As to the kind of experiment: In vitro radiometric PKD kinase activity assay. The data set is classed as biochemical. Set-up: purchased Biomol International. The note with it: mean ± SEM, n = number of independent experiments; read-out: IC50 Radiometric PKD1. The procedure: In vitro radiometric PKD kinase assays were conducted as previously described. Briefly, 50 ng recombinant human PKD1 (Biomol International, Plymouth Meeting, PA, USA) was incubated at 30 °C for 10 min with a reaction mixture containing 2.5 μg syntide-2 (Sigma), 70 μM ATP, and 1 μCi γ-^32 P-ATP (PerkinElmer, Boston, MA, USA) in kinase buffer (50 mM Tris-HCl pH 7.5, […], and 10 mM […]). 25 μL of the reaction mixture was then spotted on Whatman P81 filter paper (Whatman Inc., Clifton, NJ, USA), and filter papers were washed three times with 0.5% phosphoric acid, dried, then counted using a Beckman LS6500 multi-purpose scintillation counter.

Data set [3] concerns the target T1, PKD1. As to the kind of experiment: % PKD1 activity at 1 μM (single concentration; assay format not stated). The conditions noted are these: compound at 1 μM. The class given is biochemical.

`COc1ccc2oc3c(c2c1)CCCNC3=O` [kb-NB77-56, 7-Methoxy-2,3,4,5-tetrahydro-[1]benzoxolo[2,3-c]azepin-1-one] gave a melting point of 261 to 263 °C. This molecule returned an IC50 at PKD1 [1] of 2400 ± 140 nM. For the same molecule, the half-maximal inhibitory concentration (IC50) on PKD1 [2] worked out at 2390 nM.
`C=CCOc1ccc2oc3c(c2c1)CCCNC3=O` [kb-NB77-84, 7-Allyloxy-2,3,4,5-tetrahydro-[1]benzoxolo[2,3-c]azepin-1-one] registered a melting point of 198 to 200 °C. Besides, the IC50 against PKD1 [1] was 2600 ± 200 nM. Besides, the IC50 on PKD1 [2] is 1230 nM.
As to `O=C1NCCCc2c1oc1ccc(O)c(Cl)c21` [kb-NB77-88, 6-Chloro-7-hydroxy-2,3,4,5-tetrahydro-[1]benzoxolo[2,3-c]azepin-1-one], the melting point is more than 300 °C. Also, inhibition against PKD1 [1] was half-maximal at 1400 ± 100 nM (IC50). Also, at PKD1 [2], the IC50 worked out at 890 nM.
Molecule `C=CCc1c(O)ccc2oc3c(c12)CCCNC3=O` [kb-NB96-02, 6-Allyl-7-hydroxy-2,3,4,5-tetrahydro-[1]benzoxolo[2,3-c]azepin-1-one] showed a melting point of 255 to 257 °C. Half-maximal inhibition on PKD1 [1] (IC50) was put at 2400 ± 300 nM. The IC50 at PKD1 [2] was 1580 nM.
The molecule `O=C1NCCCc2c1oc1ccc(O)c(F)c21` [kb-NB96-21, 6-Fluoro-7-hydroxy-2,3,4,5-tetrahydro-[1]benzoxolo[2,3-c]azepin-1-one] came in with a melting point of more than 300 °C. This molecule displayed an IC50 on PKD1 [1] of 1300 ± 50 nM. For the same molecule, the IC50 at PKD1 [2] is 240 nM.
The corresponding values for `O=C1NCCc2c1oc1ccc(O)cc21` [kb-NB123-23A, 6-Hydroxy-3,4-dihydrobenzoxolo[2,3-c]pyridin-1(2H)-one] are 265 to 268 °C, 12600 ± 1300 nM and 1410 nM.
For `O=C1NCCc2c1[nH]c1ccc(O)cc21` [kb-NB123-59, 2,3,4,9-Tetrahydro-6-hydroxy-1H-pyrido[3,4-b]indol-1-one], the melting point is 244 to 247 °C. Half-maximal inhibition at PKD1 [1] (IC50) required 19400 ± 1400 nM. In addition, the IC50 at PKD1 [2] is 1570 ± 200 nM.
Turning to `O=C1NCCC(=O)c2c1oc1ccc(O)cc21` [kb-NB123-63, 7-Hydroxy-3,4-dihydro-[1]benzoxolo[2,3-c]azepine-1,5(2H)-dione], the melting point was more than 300 °C. The molecule further yielded an IC50 against PKD1 [1] of 14900 ± 1200 nM. The IC50 on PKD1 [2] came to 850 ± 110 nM.
On the same counts, the results for `O=C1NCCC(O)c2c1oc1ccc(O)cc21` (stereo not drawn) [kb-NB123-89, 5,7-Dihydroxy-2,3,4,5-tetrahydro-[1]benzoxolo[2,3-c]azepin-1-one] are 280 to 282 °C, 24100 ± 710 nM and 1230 ± 210 nM.
Turning to `O=C1NCCC(=NNc2ccccc2)c2c1oc1ccc(O)cc21` [kb-NB142-05, 7-Hydroxy-5-(2-phenylhydrazono)-2,3,4,5-tetrahydro-[1]benzoxolo[2,3-c]azepin-1-one], the melting point was 234 to 236 °C. The midpoint of inhibition against PKD1 [1], the IC50, lay at 21700 ± 520 nM. Moreover, the IC50 at PKD1 [2] amounted to 1130 nM.
For `Nc1ccc2[nH]c3c(c2c1)CCNC3=O` [kb-NB142-08, 6-Amino-2,3,4,9-tetrahydro-1H-pyrido[3,4-b]indol-1-one], the melting point was in the range of 280 to 282 °C. Also, the IC50 against PKD1 [1] is 74400 ± 2200 nM. Besides, the IC50 on PKD1 [2] is 15700 ± 190 nM.
In turn, `O=C1NCCC(=NOCc2ccccc2)c2c1oc1ccc(O)cc21` [kb-NB142-10, 5-(Benzyloxyimino)-7-hydroxy-2,3,4,5-tetrahydro-[1]benzoxolo[2,3-c]azepin-1-one] returned a melting point of 103 to 110 °C. For the same molecule, the “IC50 IMAP-FP PKD1” value against PKD1 [1] is reported as “not inhibitory”.
`Cc1ccc(S(=O)(=O)NN=C2CCNC(=O)c3oc4ccc(O)cc4c32)cc1` [kb-NB142-11, 7-Hydroxy-5-[2-{(4-methylphenyl)sulfony}hydrazono]-2,3,4,5-tetrahydro-[1]benzoxolo[2,3-c]azepin-1-one]: the melting point was in the range of 220 to 224 °C. On PKD1 [1], this molecule came in with an IC50 of 38200 ± 1170 nM.
On to `NCCN1CCSc2c(sc3ccc(O)cc23)C1=O` [kb-NB165-75, 2,3-Dihydro-4-(2-aminoethyl)-9-hydroxy-[1]benzothieno[2,3-f]-1,4-thiazepin-5(2H)-one], for which the melting point was in the range of 250 to 254 °C. This molecule also came in with a remaining activity at 1 µM at PKD1 [3] of 55.6%. In addition, the IC50 on PKD1 [2] was determined as 757 nM.
On the same counts, the results for `c1ccc(COc2ccc3sc4c(c3c2)SCCNC4)cc1` [kb-NB165-81, 2,3,4,5-Tetrahydro-9-benzyloxy-[1]benzothieno[2,3-f]-1,4-thiazepine] are 144 to 145 °C, 78.3% and 39600 nM.
As for `Oc1ccc2sc3c(c2c1)SCCNC3` [kb-NB165-83, 2,3,4,5-Tetrahydro-9-hydroxy-[1]benzothieno[2,3-f]-1,4-thiazepine], the melting point is 182 to 184 °C (dec.). For the same molecule, on PKD1 [3], the remaining activity at 1 µM was found to be 92.4%. Moreover, the IC50 at PKD1 [2] is 16400 nM.
The corresponding values for `O=C1NCCCSc2c1sc1ccc(OCc3ccccc3)cc21` [kb-NB165-89, 2,3,4,5-Tetrahydro-10-benzyloxybenzo[b]thieno[2,3-f]-1,5-thiazocin-6-one] are 198 to 199 °C, 84.3% and 21700 nM.
For `COc1ccc2sc3c(c2c1)SCCCNC3=O` [kb-NB184-02, 2,3,4,5-Tetrahydro-10-methoxybenzo[b]thieno[2,3-f]-1,5-thiazocin-6-one], the melting point was 185 to 188 °C. Besides, the remaining activity at 1 µM on PKD1 [3] worked out at 29.5%. Besides, the IC50 at PKD1 [2] is 190 ± 30 nM.
Consider `O=C1NCCSc2c1[s+]([O-])c1ccc(O)cc21` (stereo not drawn) [kb-NB184-22, 3,4-Dihydro-9-hydroxy-6-oxide-[1]benzothieno[2,3-f]-1,4-thiazepin-5(2H)-one], for which the melting point was 160 to 163 °C (dec.). This molecule also displayed a remaining activity at 1 µM on PKD1 [3] of 66.5 ± 6.1%.
On the same counts, the results for `O=C1NCCCOc2c1sc1ccc(OCc3ccccc3)cc21` [kb-NB184-36, 2,3,4,5-Tetrahydro-10-benzyloxybenzo[b]thieno[2,3-f]-1,5-oxazocin-6-one] are 195 to 200 °C and 83.3 ± 3.8%.
The corresponding values for `O=C1NCCSc2c1sc1c(OCc3ccccc3)cccc21` [kb-NB184-38, 3,4-Dihydro-7-benzyloxy-[1]benzothieno[2,3-f]-1,4-thiazepin-5(2H)-one] are 213 to 215 °C and 98.6 ± 4.1%.
Consider `O=C1NCCSc2c1sc1c(O)cccc21` [kb-NB184-40, 3,4-Dihydro-7-hydroxy-[1]benzothieno[2,3-f]-1,4-thiazepin-5(2H)-one], for which the melting point was 269 to 272 °C (dec.). At PKD1 [3], the remaining activity at 1 µM worked out at 99 ± 11%.
Molecule `COc1cccc2c3c(sc12)C(=O)NCCS3` [kb-NB184-44, 3,4-Dihydro-7-methoxy-[1]benzothieno[2,3-f]-1,4-thiazepin-5(2H)-one] returned a melting point of 220 to 224 °C. The remaining activity at 1 µM on PKD1 [3] is 77.5 ± 3.6%.
The corresponding values for `COc1ccc2sc3c(c2c1)[S+]([O-])CCNC3=O` (stereo not drawn) [kb-NB184-45, 3,4-Dihydro-9-methoxy-1-oxide-[1]benzothieno[2,3-f]-1,4-thiazepin-5(2H)-one] are 215 to 217 °C and 97 ± 16%.
Consider `COc1ccc2sc3c(c2c1)OCCCNC3=O` [kb-NB184-57, 2,3,4,5-Tetrahydro-10-methoxybenzo[b]thieno[2,3-f]-1,5-oxazocin-6-one], for which the melting point was 233 to 237 °C. Besides, the remaining activity at 1 µM on PKD1 [3] amounted to 62 ± 3.5%.
